Results on 14 compounds are retold here after patent US5552405A, “Substituted pyrrolidine derivatives as HIV protease inhibitors” (Bio-Mega/Boehringer Ingelheim Research, Inc., priority 1995, dated 1996).

Assay [1] deals with T1, HIV protease (Human immunodeficiency virus type 1 group M subtype B, UniProt P04585).
T1 construct: HIV protease was expressed in E. coli; made in house; host or cells: E. coli
In words: Recombinant HIV Protease HPLC Assay. In kind it is biochemical. Particulars: recombinant HIV protease expressed in E. coli; substrate VSFNFPQITL-NH2; pH 5.5; 37°, 30 min; read-out: IC50, concentration of the test compound which causes a 50% inhibition of the HIV-protease. The source says: The procedure is based on the capacity of the test compound to inhibit enzymatic cleavage by HIV protease of a decapeptide (the substratel having an amino acid sequence which includes a known HIV protease cleavage site of a HIV polyprotein; see H. G. Krausslich et al., Proc. Natl. Acad. Sci. U.S.A., 86, 807 (1989). Details of this assay together with the results obtained for exemplified compounds of formula 1 are described in the examples hereinafter.
Enzyme: HIV protease was expressed in E. coli {construct pBRT1 prt^+, see W. G. Farmerie et al., Science, 236, 305 (1987)}, according to the following protocol: Unless stated otherwise, all solutions are aqueous solutions.
E. coli cells containing the pBRT1 prt^+ plasmid were used to inoculate a seed culture media composed of Luria-Bertani Broth containing 100 μg/mL of ampicillin. Flasks were incubated at 37° under agitation for 17 h. Production flasks containing sterile M9 broth, supplemented with 100 μg/mL of ampicillin, were inoculated at a level of 1% (v/v) using the seed culture described above. Total volume in each production flask was 500 mL in a 2 L Erlenmeyer flask. Flasks were incubated at 37° under agitation until a cell concentration corresponding to an optical density (λ=540 μm) of 0.6 was reached (no dilution). This time span was routinely 3-4 h. Flasks were then supplemented with 5 mM isopropylthiogalactoside (IPTG, Research Organics, Cleveland, Ohio, USA) and incubation was continued until the cell concentration reached an optical density of 0.2 at 16-fold dilution. Flasks were then supplemented with 1 mM phenylmethylsulfonyl fluoride (PMSF) and rapidly chilled to 4°. The bacterial cells were recovered by centrifugation at 4°. The wet pellet was stored at -70°.
All steps below were perfomed at 4° unless otherwise indicated. Thawed cells were mixed with buffer A {50 mM tris(hydroxymethyl)aminoethane HCl (Tris-HCl, pH 7.4); 0.6 mM ethylenediaminetetraacetic acid (EDTA); 0.375M NaCl, 0.2% Nonidet P-40® (BDH Chemicals Ltd., Poole, UK); 1 mM PMSF}, at a ratio of one part cells to nine parts buffer A. Diatomaceous earth (Celite 545® John Manville, Lompoc, Calif. U.S.A.) was added at a ratio of two parts to one part of wet cell weight. The resulting slurry was homogenized at high speed (ca. 20,000 rpm) on a Waring® industrial blender for 8×15 sec. pulses. Cell debris/Celite® was collected by centrifugation and the resulting pellet was extracted with 4.5 parts of buffer A to one part wet solids using the homogenization procedure described above. Supernatants from both homogenization steps were combined and soluble protein was precipitated by the addition of solid (NH4)2 SO4 to yield a final concentration of 75% saturation. This mixture was agitated for 60 min and the precipitate was recovered by centrifugation. The resulting pellet was suspended in buffer B {50 mM Tris-HCl, pH 8; 30 mM NaCl; 1 mM DL-dithiothreitol (DTT); 1 mM EDTA; mM PMSF; 10% glycerol}, and dialyzed for 18 h against the same buffer.
An aliquot of the dialyzed extract containing 150 mg of the protein was loaded onto a Sephadex A25® anion exchange column (Pharmacia, Uppsala, Sweden) with bed dimensions of 70 cm length and 2.5 cm diameter. The sample was eluted isocratically with buffer B at a linear flow rate of 10 cm/h. Fractions containing HIV protease activity (see below for assay description) were combined, and soluble protein was precipitated by the addition of saturated aqueous (NH4)2 SO4 to yield a total (NH4)2 SO4 concentration of 85% saturation. Precipitated protein was removed by centrifugation and the resulting pellet was dissolved in buffer C {50 mM 2-(4-morpholino)ethanesulfonic acid (MES), pH 5.5; 150 mM NaCl; 1 mM DTT; 1 mM EDTA; 10% glycerol}. This preparation was dialyzed for 18 h against buffer C, and then frozen at -70°. All crude extracts were purified by chromatography in aliquots containing 150 mg of protein in the same manner as described above. […]

Assay [2] deals with HIV (H9/HTLV-IIIB) in HTLV-I transformed C8166 cells. The experiment in a line: plaque assay, inhibition of HIV (H9/HTLV-IIIB) syncytia formation in C8166 cells. It counts as cell-based. Particulars: Human immunodeficiency virus 1, fifty times TCID50, 37°, 72 h, read-out: EC50, concentration of the test compound which causes a 50% inhibition of syncytia formation. An excerpt:
Typical of such procedures are those described by S. Harada and N. Yamamoto, Jpn. J. Cancer Res. (Gann), 76, 432 (1985), and S. Harada et al., Science, 229, 563 (1985). An assay based on the latter procedures is described in the examples hereinafter.
The following protocol, used for screening antiviral effects of the compounds of formula 1, is adapted from a plaque assay utilizing HTLV-I transformed cells, previously reported by Harada et al., supra. HTLV-I transformed cells are used because of the rapidity with which HIV will replicate in the cells.
1. The test compound is dissolved in dimethylsulfoxide to a concentration of 5 mg/mL. The resultant solution can be stored at 4° until use.
2. The resultant solution is diluted in RPMI 1640 (Gibco Laboratories, St. Lawrence, Mass., USA) to four times (4×) the final concentration which is to be tested. Once diluted in RPMI 1640, the solution is used in the cell culture assay within 4 h.
3. The 4×solution (50 μL) is added to triplicate wells of a 96 well flat bottomed microtiter plate. RPMI (50 μL) also is added to control wells.
4. C8166 cells (5×10^4) in […] of HEPES-buffered RPMI 1640 (pH=7.2), 10% heat inactivated fetal calf serum (FCS), […] gentamicin (complete media) are added to all wells.
5. Fifty times TCID50 of H9/HTLV-IIIB stock (stored in liquid nitrogen as cell culture supernatant in 50% FCS) in 100 μL of complete media is added to all wells. Infectious titer of virus stocks are as previously determined by end point dilution on C8166 cells. Titer of stocks are stable for 6-12 months when stored at -193°.
6. Microtiter plates are then placed on level shelves of a 37°, 5% CO2 humidified incubator for 72 h.
7. Plates are then removed and centers of syncytia are counted in each well by low power phase contrast light microscopy. […] Control wells should have between 25 and 75 centers of syncytia per well.
8. Percent inhibition of syncytia formation is calculated by the formula: [formula]
The concentration of the test compound which causes a 50% inhibition of syncytia formation, i.e. the EC50, is determined by using the technique of serial dilution of the working solution at step 3 and graphically plotting the observed percent inhibition of syncytia formation against the various concentrations of the test compound.

On to `CC(C)[C@H](NC(=O)OCc1ccccc1)C(=O)N[C@@H](Cc1ccccc1)[C@H](O)CN1C[C@H](OCc2ccccc2)C[C@H]1C(=O)NC(C)(C)C` [Entry 2], for which the IC50 in assay [1] is 16 nM.

With `CC(C)[C@H](NC(=O)c1ccc2ccccc2n1)C(=O)N[C@@H](Cc1ccccc1)[C@H](O)CN1C[C@H](Sc2ncccn2)C[C@H]1C(=O)NC(C)(C)C` [Entry 10], the IC50 in assay [1] amounted to 4.7 nM. On to `Cc1cccc(C)c1OCC(=O)N[C@@H](Cc1ccccc1)[C@H](O)CN1C[C@H](Sc2ncccn2)C[C@H]1C(=O)NC(C)(C)C` [Entry 13], for which the IC50 in assay [1] was 4.6 nM.

With `Cc1cccc(C)c1OCC(=O)N[C@@H](Cc1ccccc1)[C@H](O)CN1C[C@H](SCc2cccnc2)C[C@H]1C(=O)NC(C)(C)C` [Entry 14], the IC50 in assay [1] came to 43 nM. `CC(C)(C)NC(=O)[C@@H]1C[C@@H](OCc2ccccc2)CN1C[C@@H](O)[C@H](Cc1ccccc1)NC(=O)[C@H](CC(N)=O)NC(=O)OCc1ccccc1` [Table I Entry 3, 4(R)-Benzyloxy-1-{3(S)-{{N-(benzyloxycarbonyl)asparaginyl}amino}-2(R)-hydroxy-4-phenylbutyl}-N-tert-butylpyrrolidine-2(S)-carboxamide]: in assay [1], the IC50 was found to be 39 nM. Besides, the EC50 in assay [2] was determined as 600 nM. Consider `CC(C)(C)NC(=O)[C@@H]1C[C@H](OCc2ccccc2)CN1C[C@@H](O)[C@H](Cc1ccccc1)NC(=O)[C@H](CC(N)=O)NC(=O)OCc1ccccc1` [Table I Entry 4, 4(S)-Benzyloxy-1-{3(S)-{{N-(benzyloxycarbonyl)asparaginyl}amino}-2(R)-hydroxy-4-phenylbutyl}-N-tert-butylpyrrolidine-2(S)-carboxamide], for which the IC50 in assay [1] was 300 nM. `CC(C)CO[C@H]1C[C@@H](C(=O)NC(C)(C)C)N(C[C@@H](O)[C@H](Cc2ccccc2)NC(=O)[C@@H](NC(=O)OCc2ccccc2)C(C)C)C1` [Table I Entry 5, 1-{3(S)-{{N-(benzyloxycarbonyl)valyl}amino}-2(R)-hydroxy-4-phenylbutyl}-N-tert-butyl-4(S)-(2-methylpropyloxy)pyrrolidine-2(S)-carboxamide]: the IC50 in assay [1] stood at 745 nM. Regarding `CC(C)CO[C@@H]1C[C@@H](C(=O)NC(C)(C)C)N(C[C@@H](O)[C@H](Cc2ccccc2)NC(=O)[C@@H](NC(=O)OCc2ccccc2)C(C)C)C1` [Table I Entry 6, 1-{3(S)-{{N-(benzyloxycarbonyl)valyl}amino}-2(R)-hydroxy-4-phenylbutyl}-N-tert-butyl-4(R)-(2-methylpropyloxy)pyrrolidine-2(S)-carboxamide], the IC50 in assay [1] was found to be 180 nM. Moreover, in assay [2], the EC50 came to 3000 nM. The matching figures for `CC(C)[C@H](NC(=O)OCc1ccccc1)C(=O)N[C@@H](Cc1ccccc1)[C@H](O)CN1C[C@H](OCc2ccccc2)C[C@H]1C(=O)NC1CC1` [Table I Entry 7, 4(R)-Benzyloxy-1-{3(S)-{{N-(benzyloxycarbonyl)valyl}amino}-2(R)-hydroxy-4-phenylbutyl}-N-cyclopropylpyrrolidine-2(S)-carboxamide]: 100 nM and 900 nM. The matching figures for `CC(C)(C)NC(=O)[C@@H]1C[C@@H](Cc2ccccc2)CN1C[C@@H](O)[C@H](Cc1ccccc1)NC(=O)[C@H](CC(N)=O)NC(=O)OCc1ccccc1` [Table I Entry 8, 4(R)-Benzyl-1-{3(S)-{{N-(benzyloxycarbonyl)asparaginyl}amino}-2(R)-hydroxy-4-phenylbutyl}-N-tert-butylpyrrolidine-2(S)-carboxamide]: 48 nM and 700 nM.

As for `CC(C)(C)NC(=O)[C@@H]1C[C@H](Cc2ccccc2)CN1C[C@@H](O)[C@H](Cc1ccccc1)NC(=O)[C@H](CC(N)=O)NC(=O)OCc1ccccc1` [Table I Entry 9, 4(S)-Benzyl-1-{3(S)-{{N-(benzyloxycarbonyl)asparaginyl}amino}-2(R)-hydroxy-4-phenylbutyl}-N-tert-butylpyrrolidine-2(S)-carboxamide], in assay [1], the IC50 was 780 nM. In addition, the EC50 in assay [2] was 4000 nM. Take `CC(C)[C@H](NC(=O)c1ccc2ccccc2n1)C(=O)N[C@@H](Cc1ccccc1)[C@H](O)CN1C[C@H](Sc2ncccn2)C[C@H]1C(=O)NC(C)(C)C` [Table I Entry 10, N-tert-butyl-1-{2(R)-hydroxy-4-phenyl-3(S)-{{N-(2-quinolinylcarbonyl)valyl}amino}butyl}-4(R)-(2-pyrimidinylthio)pyrrolidine-2(S)-carboxamide]: the EC50 in assay [2] was determined as 250 nM. Consider `CC(C)[C@H](NC(=O)c1ccc2ccccc2n1)C(=O)N[C@@H](Cc1ccccc1)[C@H](O)CN1C[C@H](SCc2cccnc2)C[C@H]1C(=O)NC(C)(C)C` [Table I Entry 11, N-tert-butyl-1-{2(R)-hydroxy-4-phenyl-3(S)-{{N-(2-quinolinylcarbonyl)valyl}amino}butyl}-4(R)-{(3-pyridinylmethyl)thio}pyrrolidine-2(S)-carboxamide], for which the IC50 in assay [1] amounted to 12 nM. Moreover, in assay [2], the EC50 worked out at 480 nM.

For the compound `Cc1cccc(C)c1OCC(=O)N[C@@H](Cc1ccccc1)[C@H](O)CN1C[C@H](Sc2ncccn2)C[C@H]1C(=O)NC(C)(C)C` [Table I Entry 13, N-tert-butyl-1-{3(S)-{{(2,6-dimethylphenoxy)acetyl}amino}-2(R)-hydroxy-4-phenylbutyl}-4(R)-(2-pyrimidinylthio)pyrrolidine-2(S)-carboxamide], the EC50 in assay [2] was found to be 250 nM.
